The values that follow come from US9751861B2, “N1-(3,3,3-trifluoro-2-hydroxo-2-methylpropionyl)-piperidine derivatives as inhibitors of pyruvate dehydrogenase kinase” (MERCK PATENT GMBH, priority 2013, dated 2017).

The structures appear in SMILES notation. pIC50: −log10 of the molar value.

This experiment concerns the target T1, PDHK2 (Homo sapiens, UniProt Q15119).
T1 construct: purchased Carna Bioscience
Kind of experiment: Biochemical activity testing of PDHK2: PDC inactivation assay. The following applies: human rec PDHK2, PDC from porcine heart, ATP 5 μM; read-out: IC50 PDHK2 (enzyme assay). From the text:
Biochemical Activity Testing of PDHK2: PDC Inactivation Assay
The biochemical activity assay for PDHK2 is based on the inactivation of PDC through phosphorylation by PDHK2. The assay is run in two steps: the enzymatic PDHK2 reaction in which isolated PDC is phosphorylated by PDHK2 with ATP as co-substrate and the PDC activity assay in which pyruvate and NAD are converted to acetyl-CoA and NADH. The PDC activity correlates to the increase in NADH and thereby is detectable directly via the increasing fluorescence signal (Exc 340 nm, Em 450 nm). Inhibition of PDHK2 results in a lower phosphorylation status and thereby a less decrease in activity of PDC and a stronger increase in NADH fluorescence signal.
The PDC inactivation assay is performed in Greiner 384-well microtiter plates and is used for high throughput screen. 4 μl of PDHK2 (human, rec, Carna Bioscience, 10 ng/μl-137 nM final concentration) and PDC (isolated from porcine heart, Sigma-Aldrich, 20 mU/ml final concentration) are incubated in the absence or presence of the test compound (10 dilution concentrations) for 30 min at room temperature in kinase buffer (15 mM potassium phosphate buffer, pH 7.0, 60 mM KCl, 1.5 mM DTT, 2.5 mM MgCl2, 0.0125% (w/v) BSA, 0.125% Pluronic F-68). The kinase reaction is started by the addition of 4 μl ATP substrate solution (fc 5 μM in kinase buffer). After 30 min incubation at 37° C. 40 μl of PDC reaction solution (100 mM Tris/HCl, pH 7.8, 0.5 mM EDTA, 1 mM MgCl2, 50 mM NaF, 0.25 mM Coenzyme A, 5 mM pyruvate, 1 mM NAD, 5 mM DTT, […] thiamine pyrophosphate) is added. The first fluorescence measurement is performed on a Perkin Elmer Envision (Exc 340 nm, Em 450 nm). The reaction is incubated for 45 min at room temperature. Afterwards a second fluorescence measurement is performed and the PDC activity is calculated by the difference between both measurements. As full value for the PDHK2 assay the inhibitor-free PDHK2 reaction is used. The pharmacological zero value used is DCA (Sigma-Aldrich) in a final concentration of 3 mM. The inhibitory values (IC50) were determined using either the program Symyx Assay Explorer® or Condosseo® from GeneData.
As for `Cc1cc(C2CCN(C(=O)[C@@](C)(O)C(F)(F)F)CC2)nn1-c1ccc(F)cc1` [Compound A40, (R)-1-{4-[1-(4-Fluoro-phenyl)-5-methyl-1H-pyrazol-3-yl]-piperidin-1-yl}-3,3,3-trifluoro-2-hydroxy-2-methyl-propan-1-one], the pIC50 is 5.52 to 6.52.

As for `C[C@H]1CN(C(=O)[C@@](C)(O)C(F)(F)F)CC[C@H]1c1ccn(-c2ccc(F)cc2)n1` [Compound A45, (R)-3,3,3-Trifluoro-1-{(3R,4R)-4-[1-(4-fluoro-phenyl)-1H-pyrazol-3-yl]-3-methyl-piperidin-1-yl}-2-hydroxy-2-methyl-propan-1-one], the negative-log IC50 (pIC50) is 4.30 to 5.52.

Consider `Cc1cc(C2CCN(C(=O)[C@@](C)(O)C(F)(F)F)CC2)nn1-c1ccccc1` [Compound A47, (R)-1-[4-(5-Methyl-1-phenyl-1H-pyrazol-3-yl)-piperidin-1-yl]-3,3,3-trifluoro-2-hydroxy-2-methyl-propan-1-one], for which the pIC50 is 4.30 to 5.52.

`C[C@@](O)(C(=O)N1CCC(c2ccnn2C2CCCC2)CC1)C(F)(F)F` [Compound A51, (R)-1-[4-(2-Cyclopentyl-2H-pyrazol-3-yl)-piperidin-1-yl]-3,3,3-trifluoro-2-hydroxy-2-methyl-propan-1-one]: the negative logarithm of the IC50 (pIC50) was 5.52 to 6.52.

Turning to `Cc1ccc(-n2nncc2C2CCN(C(=O)[C@@](C)(O)C(F)(F)F)CC2)cc1` [Compound A59, (R)-3,3,3-Trifluoro-2-hydroxy-2-methyl-1-[4-(3-p-tolyl-3 H-[1,2,3]triazol-4-yl)piperidin-1-yl]-propan-1-one], the pIC50 is 5.52 to 6.52.

In the case of `C[C@@](O)(C(=O)N1CCC(c2nccn2-c2ccc(Cl)cc2)CC1)C(F)(F)F` [Compound A69, (R)-1-{4-[1-(4-Chloro-phenyl)-1H-imidazol-2-yl]-piperidin-1-yl}-3,3,3-trifluoro-2-hydroxy-2-methyl-propan-1-one], the negative logarithm of the IC50 (pIC50) was 5.52 to 6.52.

For `C[C@@](O)(C(=O)N1CCC(c2nncn2-c2ccc(Cl)cc2)CC1)C(F)(F)F` [Compound A73, (R)-1-{4-[4-(4-Chloro-phenyl)-4H-[1,2,4]triazol-3-yl]-piperidin-1-yl}-3,3,3-trifluoro-2-hydroxy-2-methyl-propan-1-one], the pIC50 is 5.52 to 6.52.

As for `CN1CCC(n2nccc2C2CCN(C(=O)[C@@](C)(O)C(F)(F)F)CC2)CC1` [Compound A75, (R)-3,3,3-Trifluoro-2-hydroxy-2-methyl-1-{4-[2-(1-methyl-piperidin-4-yl)-2H-pyrazol-3-yl]-piperidin-1-yl}-propan-1-one], the negative logarithm of the IC50 (pIC50) was 4.30 to 5.52.

With `CC(C)Cn1nccc1C1CCN(C(=O)[C@@](C)(O)C(F)(F)F)CC1` [Compound A76, (R)-3,3,3-Trifluoro-2-hydroxy-1-[4-(2-isobutyl-1H-pyrazol-3-yl)-1-piperidyl]-2-methyl-propan-1-one], the pIC50 is 4.30 to 5.52.

With `C[C@@](O)(C(=O)N1CCC(c2ccnn2-c2ccc(C#N)nc2)CC1)C(F)(F)F` [Compound A81, 5-{5-[1-((R)-3,3,3-Trifluoro-2-hydroxy-2-methyl-propionyl)-piperidin-4-yl]-pyrazol-1-yl}-pyridine-2-carbonitrile], the pIC50 is 5.52 to 6.52.

With `C[C@@](O)(C(=O)N1CCC(c2ccnn2-c2ccc(C(F)(F)F)cn2)CC1)C(F)(F)F` [Compound A84, (R)-3,3,3-Trifluoro-2-hydroxy-2-methyl-1-{4-[2-(5-trifluoromethyl-pyridin-2-yl)-2H-pyrazol-3-yl]-piperidin-1-yl}-propan-1-one], the negative-log IC50 (pIC50) is 5.52 to 6.52.

In the case of `C[C@@](O)(C(=O)N1CCC(c2ccnn2-c2ccccc2C(F)(F)F)CC1)C(F)(F)F` [Compound A89, (R)-3,3,3-Trifluoro-2-hydroxy-2-methyl-1-[4-[2-[2-(trifluoromethyl)phenyl]-2H-pyrazol-3-yl]-1-piperidyl]propan-1-one], the negative logarithm of the IC50 (pIC50) is 5.52 to 6.52.

Regarding `COc1cc(F)ccc1-n1nccc1C1CCN(C(=O)[C@@](C)(O)C(F)(F)F)CC1` [Compound A90, (R)-3,3,3-Trifluoro-1-{4-[2-(4-fluoro-2-methoxy-phenyl)-2H-pyrazol-3-yl]-piperidin-1-yl}-2-hydroxy-2-methyl-propan-1-one], the negative logarithm of the IC50 (pIC50) was 5.52 to 6.52.

The term pIC50 denotes the IC50 on a negative log10 scale, so that one unit is a factor of ten.
